Test results published in patent US20100009860A1, “Device and method for analysis of interactions between biomolecules” (priority 2004, published 2010).
Ends that are not written are not given here.

Key:
streptavidine [1] = conditions: cited from earlier work
[2] = tested on: streptavidine-peptide/strep-tag II interaction; test: Inhibition of streptavidine-peptide/strep-tag II interactions on MG3 peptide-pair array, fluorescence read-out; type: binding; conditions: membrane incubated 30 min with agent (0.5 mM biotine) before analysis; excitation 366 nm, emission 510-530 nm
Procedure: The reading of the signal by fluorescence and the inhibition of the streptavidine-peptide/strep-tag II-interactions using the natural product biotine and their derivatives are shown.
A) The chemical structure of the exemplary molecular fork MG3.
The peptide being at the side of Fmoc was marked with a danysl-radical and the peptide being at the Aloc-side was marked with fluoresceine. The analysis was performed by detection of the light emission at 510-530 nm after excitation with light of a wave length of 366 nm using the Raytest DIANA chemiluminescence detection system. […]
Peptide pairs were synthesized at MG3 (FIG. 17A), whereby the constant peptide block strep-tag II was synthesized at the Aloc-side and marked with a fluoresceine radical. […] Differences in fluorescence properties of the spots were obtained with different peptide pairs, an enhanced fluorescence emission was detected for interacting peptide pairs.
For the inhibition of interaction of the peptide pairs, the modified membrane was treated with high-affinated, low-affine and non-affine agents with similar chemical properties before the analysis. […] Subsequently, the analysis of the fluorescence properties of the spots was carried out.

streptavidine [3] = target: streptavidine (Streptomyces avidinii, UniProt P22629); test: Streptavidine/strep-tag II interaction using inhibition with biotine (Western blot, immunodetection); type: binding; conditions: 60 μg streptavidine/6 μg biotine, 1 h pre-incubation
streptavidine (Streptomyces avidinii, UniProt P22629), sequence (P22629 25-183): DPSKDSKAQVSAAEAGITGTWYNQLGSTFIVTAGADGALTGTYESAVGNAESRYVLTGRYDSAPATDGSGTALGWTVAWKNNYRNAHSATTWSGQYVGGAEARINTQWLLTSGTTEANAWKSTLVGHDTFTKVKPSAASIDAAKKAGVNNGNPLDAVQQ
Procedure: The cellulose, which was modified with peptide pairs corresponding to the embodiment shown in FIG. 7 by molecular forks MG1, was analyzed using the previously formed biotine/streptavidine-complex (60 μg streptavidine/6 μg biotine, 1 h pre-incubation) followed by Western Blot-analysis and immunodetection. A) Only just one side on the MG1 was attached to oligopeptides of the streptavidine-scans. The other side was modified by an acetylation reaction. B) Only just one side on the MG1 was attached to oligopeptides of the streptavidine-scan, and the strep-tag II-peptide was synthesized on the other side.
As described in example 2, peptide pairs were synthesized at the MG2, whereby the constant peptide block strep-tag II was synthesized at the Dde-side. At the Fmoc-side, overlapping 12 mer peptides were synthesized spanning the entire streptavidine-sequence with a 2-aminoacid shift. 60 μg streptavidine were pre-incubated using 6 μg biotine in the MP-buffer (30 mM tris-HCl, pH 7.6, 170 mM NaCl, 6.4 mM KCl, 0.05% Tween 20, 5% sucrose) for 60 min and it was subsequently incubated overnight at 4° C. while shaking with the cellulose. […]
A densitometric analysis of the intensities of each spot was performed by a GS-700 imaging densitometer (Bio-Rad) for quantifying the signals (FIG. 12).

FKBP12 [4] = target: T1, FKBP12 (Mus musculus, UniProt P26883); test: Mapping of FKBP12 binding sites by classical SPOT-technology and protein interaction analysis; conditions: SPOT peptide scan of FAP48 / cytosolic domain of EGF-receptor
T1 sequence (P26883 whole entry, the tested form may be a part): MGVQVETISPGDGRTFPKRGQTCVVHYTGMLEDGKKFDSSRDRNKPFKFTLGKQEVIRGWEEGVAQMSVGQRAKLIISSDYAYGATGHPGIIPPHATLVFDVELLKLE
From the text: In a first step, the FKBP12-binding sites in the FAP48 were mapped using classical SPOT-technology and protein interaction analysis.
In a first step, the FKBP12 binding sites in the cytosolic domain of the EGF-receptor (EGFR) were mapped by classical SPOT-technology and protein interaction analysis. […] Then, peptide pairs were synthesized at the MG12, as described in example 2, whereby the constant peptide block Ac-PHVCRLLGICLTS was synthesized at the Dde-side. At the Fmoc-side, overlapping 13 mer peptides were synthesized spanning the entwire FKBP12-sequence with a 2-aminoacid shift. In each case 48 individual spots resulted therefrom.

FKBP12 [5] = target: T1, FKBP12; test: Mapping of interaction region with peptide pairs on molecular fork MG2, FKBP12 as detection molecule; type: binding; conditions: 200 nM FKBP12, overlapping 13 mer FKBP12 peptides, 2-amino acid shift, cellulose
Procedure: A) The cellulose modified with peptide pairs by molecular forks MG2 was analyzed using 200 nM FKBP12 followed by Western Blot-analysis and immunodetection. The constant peptide block acetyl-KCPLLTAQFFEQS of FAP (Lys217-Ser229) was synthesized at the Dde-side. At the Fmoc-side, overlapping 13 mer peptides were synthesized spanning the entire FKBP12-sequence with a 2-amino acid shift. The densitometric analysis was performed using a GS-700 imaging densitometer (Bio-Rad). The ordinate represents the difference from the inverse value of the intensity of each spot and the inverse value of the average spot intensities. Large positive values correspond to a weak signal in the blot and show potential interactions within the peptide pair.
(§1) B) The cellulose modified with peptide pairs by molecular forks MG2 was analyzed using 200 nM FKBP12 followed by the Western Blot-analysis and immunodetection. […] The ordinate represents the difference from the inverse value of the intensity of each analyzed spot and the inverse value of the average spot intensities. […]
as §1, with “The” for “B) The”, “intensity.” for “intensities.”

N=C1N[C@H]2[C@H](CS[C@H]2CCCCC(=O)O)N1 [2-iminobiotine]
Ka (streptavidine [1]): 8e+06 M⁻¹

O=C(O)CCCC[C@@H]1SC[C@@H]2NC(=O)N[C@@H]21 [biotine]
fluorescence emission of the spots (inhibition of peptide pair interaction) [2]: decreased
bond of the streptavidine on the strep-tag II-peptide (streptavidine [3]): blocked

N[C@@H]1[C@H](CCCCC(=O)O)SC[C@@H]1N [diaminobiotine]
fluorescence emission of the spots (inhibition of peptide pair interaction) [2]: very similar to the original fluorescence behaviour without a pharmaceutical agent

KCPLLTAQFFEQS (Ac-KCPLLTAQFFEQS; not fully specified)
interaction to FKBP12 (FKBP12 [4]): mediate an interaction to FKBP12

LSPLYLLQFNMGH (Ac-LSPLYLLQFNMGH; not fully specified)
interaction to FKBP12 (FKBP12 [4]): mediate an interaction to FKBP12

PHVCRLLGICLTS (Ac-PHVCRLLGICLTS; cysteine pairing not given here)
interaction to FKBP12 (FKBP12 [4]): particularly strong interacting

acetyl-PHVCRLLGICLTS (Ac-PHVCRLLGICLTS; cysteine pairing not given here)
interaction region in FKBP12 (FKBP12 [5]): Met21-Ser67
